# In ChEMBL document CHEMBL4507280 (2021):
# Legend:
# [1] = test system: Tyrosine-protein kinase ABL1 (Homo sapiens), P00519 [F317I]; settings: Compound concentration 1000.0 nM
# [2] = target: Bone morphogenetic protein receptor type-1A (Homo sapiens) (UniProt P36894); settings: Compound concentration 1000.0 nM
# [3] = target: Calcium/calmodulin-dependent protein kinase type IV (Homo sapiens) (UniProt Q16566); settings: Compound concentration 1000.0 nM
# [4] = target: Dual specificity protein kinase CLK2 (Homo sapiens) (UniProt P49760); settings: Compound concentration 1000.0 nM
# [5] = target: Tyrosine-protein kinase CSK (Homo sapiens) (UniProt P41240); settings: Compound concentration 1000.0 nM
# [6] = target: Casein kinase I isoform delta (Homo sapiens) (UniProt P48730); settings: Compound concentration 1000.0 nM
# [7] = target: Casein kinase I isoform epsilon (Homo sapiens) (UniProt P49674); settings: Compound concentration 1000.0 nM
# [8] = test system: Epidermal growth factor receptor (Homo sapiens), P00533 [L858R]; settings: Compound concentration 1000.0 nM
# [9] = test system: Receptor-type tyrosine-protein kinase FLT3 (Homo sapiens), P36888 [K663Q]; settings: Compound concentration 1000.0 nM
# [10] = target: Homeodomain-interacting protein kinase 1 (Homo sapiens) (UniProt Q86Z02); settings: Compound concentration 1000.0 nM
# [11] = target: Tyrosine-protein kinase JAK3 (Homo sapiens) (UniProt P52333); settings: Compound concentration 1000.0 nM
# [12] = target: Mitogen-activated protein kinase 8 (Homo sapiens) (UniProt P45983); settings: Compound concentration 1000.0 nM
# [13] = target: Mast/stem cell growth factor receptor Kit (Homo sapiens) (UniProt P10721); settings: Compound concentration 1000.0 nM
# [14] = target: Serine/threonine-protein kinase LATS1 (Homo sapiens) (UniProt O95835); settings: Compound concentration 1000.0 nM
# [15] = target: Tyrosine-protein kinase Lyn (Homo sapiens) (UniProt P07948); settings: Compound concentration 1000.0 nM
# [16] = target: Mitogen-activated protein kinase kinase kinase 15 (Homo sapiens) (UniProt Q6ZN16); settings: Compound concentration 1000.0 nM
# [17] = target: Mitogen-activated protein kinase kinase kinase kinase 4 (Homo sapiens) (UniProt O95819); settings: Compound concentration 1000.0 nM
# [18] = target: MAP kinase-activated protein kinase 5 (Homo sapiens) (UniProt Q8IW41); settings: Compound concentration 1000.0 nM
# [19] = target: Microtubule-associated serine/threonine-protein kinase 1 (Homo sapiens) (UniProt Q9Y2H9); settings: Compound concentration 1000.0 nM
# [20] = target: Dual specificity mitogen-activated protein kinase kinase 6 (Homo sapiens) (UniProt P52564); settings: Compound concentration 1000.0 nM
# [21] = target: Hepatocyte growth factor receptor (Homo sapiens) (UniProt P08581); settings: Compound concentration 1000.0 nM
# [22] = target: MAP kinase-interacting serine/threonine-protein kinase 2 (Homo sapiens) (UniProt Q9HBH9); settings: Compound concentration 1000.0 nM
# [23] = target: Macrophage-stimulating protein receptor (Homo sapiens) (UniProt Q04912); settings: Compound concentration 1000.0 nM
# [24] = target: Serine/threonine-protein kinase Nek2 (Homo sapiens) (UniProt P51955); settings: Compound concentration 1000.0 nM
# [25] = target: Mitogen-activated protein kinase 12 (Homo sapiens) (UniProt P53778); settings: Compound concentration 1000.0 nM
# [26] = target: Serine/threonine-protein kinase PAK 6 (Homo sapiens) (UniProt Q9NQU5); settings: Compound concentration 1000.0 nM
# [27] = target: Calcium-dependent protein kinase 1 (Plasmodium falciparum) (UniProt P62344); settings: Compound concentration 1000.0 nM
# [28] = target: Phosphatidylinositol 4-phosphate 3-kinase C2 domain-containing subunit beta (Homo sapiens) (UniProt O00750); settings: Compound concentration 1000.0 nM
# [29] = test system: Phosphatidylinositol 4,5-bisphosphate 3-kinase catalytic subunit alpha isoform (Homo sapiens), P42336 [E545A]; settings: Compound concentration 1000.0 nM
# [30] = target: 1-phosphatidylinositol 3-phosphate 5-kinase (Homo sapiens) (UniProt Q9Y2I7); settings: Compound concentration 1000.0 nM
# [31] = target: Phosphatidylinositol 4-phosphate 5-kinase type-1 gamma (Homo sapiens) (UniProt O60331); settings: Compound concentration 1000.0 nM
# [32] = target: Serine/threonine-protein kinase N1 (Homo sapiens) (UniProt Q16512); settings: Compound concentration 1000.0 nM
# [33] = target: cGMP-dependent protein kinase 2 (Homo sapiens) (UniProt Q13237); settings: Compound concentration 1000.0 nM
# [34] = target: RAF proto-oncogene serine/threonine-protein kinase (Homo sapiens) (UniProt P04049); settings: Compound concentration 1000.0 nM
# [35] = target: Ribosomal protein S6 kinase alpha-2 (Homo sapiens) (UniProt Q15349); settings: Compound concentration 1000.0 nM
# [36] = target: Ribosomal protein S6 kinase beta-1 (Homo sapiens) (UniProt P23443); settings: Compound concentration 1000.0 nM
# [37] = target: SRSF protein kinase 2 (Homo sapiens) (UniProt P78362); settings: Compound concentration 1000.0 nM
# [38] = target: Serine/threonine-protein kinase TAO2 (Homo sapiens) (UniProt Q9UL54); settings: Compound concentration 1000.0 nM
# [39] = target: Serine/threonine-protein kinase TAO3 (Homo sapiens) (UniProt Q9H2K8); settings: Compound concentration 1000.0 nM
# [40] = target: TRAF2 and NCK-interacting protein kinase (Homo sapiens) (UniProt Q9UKE5); settings: Compound concentration 1000.0 nM
# [41] = target: NT-3 growth factor receptor (Homo sapiens) (UniProt Q16288); settings: Compound concentration 1000.0 nM
# [42] = target: Phosphatidylinositol 3-kinase catalytic subunit type 3 (Homo sapiens) (UniProt Q8NEB9); settings: Compound concentration 1000.0 nM
# [43] = target: Serine/threonine-protein kinase 32C (Homo sapiens) (UniProt Q86UX6); settings: Compound concentration 1000.0 nM
# [44] = target: Tyrosine-protein kinase ZAP-70 (Homo sapiens) (UniProt P43403); settings: Compound concentration 1000.0 nM
# [45] = target: D(1B) dopamine receptor (Homo sapiens) (UniProt P21918); settings: Compound concentration 10.0 uM
# Chain of Phosphatidylinositol 4,5-bisphosphate 3-kinase catalytic subunit alpha isoform (Homo sapiens), P42336 [E545A] (P42336 whole entry E545A, canonical isoform): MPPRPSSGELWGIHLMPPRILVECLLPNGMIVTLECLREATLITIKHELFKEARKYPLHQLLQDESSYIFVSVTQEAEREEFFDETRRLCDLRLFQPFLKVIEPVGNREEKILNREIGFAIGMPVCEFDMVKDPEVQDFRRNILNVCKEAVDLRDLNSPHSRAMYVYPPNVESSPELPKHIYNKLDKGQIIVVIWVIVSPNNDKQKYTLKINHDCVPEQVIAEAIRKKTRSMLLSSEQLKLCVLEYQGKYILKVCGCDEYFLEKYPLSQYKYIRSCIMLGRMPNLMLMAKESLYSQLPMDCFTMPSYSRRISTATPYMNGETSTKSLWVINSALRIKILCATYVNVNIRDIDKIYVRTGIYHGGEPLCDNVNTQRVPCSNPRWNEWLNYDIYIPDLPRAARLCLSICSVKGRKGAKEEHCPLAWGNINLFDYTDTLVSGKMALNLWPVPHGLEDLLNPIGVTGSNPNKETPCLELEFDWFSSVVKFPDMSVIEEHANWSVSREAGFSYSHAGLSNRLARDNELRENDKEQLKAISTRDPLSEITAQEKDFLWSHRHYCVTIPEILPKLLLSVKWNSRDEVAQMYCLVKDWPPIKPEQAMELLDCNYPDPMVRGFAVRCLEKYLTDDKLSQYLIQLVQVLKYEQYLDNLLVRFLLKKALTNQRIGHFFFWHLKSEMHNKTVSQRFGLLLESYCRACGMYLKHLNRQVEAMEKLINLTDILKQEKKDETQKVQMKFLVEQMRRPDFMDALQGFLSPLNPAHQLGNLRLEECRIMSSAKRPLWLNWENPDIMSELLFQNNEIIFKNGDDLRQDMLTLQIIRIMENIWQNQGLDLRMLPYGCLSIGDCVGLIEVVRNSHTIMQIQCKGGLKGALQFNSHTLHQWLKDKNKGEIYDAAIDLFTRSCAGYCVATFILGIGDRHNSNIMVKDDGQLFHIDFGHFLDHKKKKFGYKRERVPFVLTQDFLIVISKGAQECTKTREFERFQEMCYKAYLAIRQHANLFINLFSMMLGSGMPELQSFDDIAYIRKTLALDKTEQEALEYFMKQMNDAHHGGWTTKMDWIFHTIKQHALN
# Chain of Casein kinase I isoform epsilon (Homo sapiens) (P49674 whole entry, looked up, canonical isoform): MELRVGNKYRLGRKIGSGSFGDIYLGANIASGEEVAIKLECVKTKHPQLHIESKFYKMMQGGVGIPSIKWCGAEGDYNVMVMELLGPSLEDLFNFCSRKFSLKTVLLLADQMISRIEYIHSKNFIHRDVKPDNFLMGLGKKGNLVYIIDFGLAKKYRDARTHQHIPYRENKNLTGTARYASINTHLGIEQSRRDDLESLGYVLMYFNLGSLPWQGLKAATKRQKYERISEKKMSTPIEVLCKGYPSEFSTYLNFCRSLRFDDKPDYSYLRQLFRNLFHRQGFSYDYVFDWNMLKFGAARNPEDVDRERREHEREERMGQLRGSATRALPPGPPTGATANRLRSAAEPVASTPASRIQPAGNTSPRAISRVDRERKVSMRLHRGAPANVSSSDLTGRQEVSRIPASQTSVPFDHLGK
# Chain of Macrophage-stimulating protein receptor (Homo sapiens) (Q04912 25-304 limits assumed): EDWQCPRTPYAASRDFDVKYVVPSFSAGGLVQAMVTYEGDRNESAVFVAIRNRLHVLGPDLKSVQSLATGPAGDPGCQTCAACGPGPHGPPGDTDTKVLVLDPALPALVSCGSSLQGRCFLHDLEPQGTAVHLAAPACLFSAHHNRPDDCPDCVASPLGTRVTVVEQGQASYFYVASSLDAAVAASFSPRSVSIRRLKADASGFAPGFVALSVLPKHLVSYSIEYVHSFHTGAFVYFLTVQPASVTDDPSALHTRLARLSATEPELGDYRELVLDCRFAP
# Chain of Macrophage-stimulating protein receptor (Homo sapiens) (Q04912 310-1400 limits assumed): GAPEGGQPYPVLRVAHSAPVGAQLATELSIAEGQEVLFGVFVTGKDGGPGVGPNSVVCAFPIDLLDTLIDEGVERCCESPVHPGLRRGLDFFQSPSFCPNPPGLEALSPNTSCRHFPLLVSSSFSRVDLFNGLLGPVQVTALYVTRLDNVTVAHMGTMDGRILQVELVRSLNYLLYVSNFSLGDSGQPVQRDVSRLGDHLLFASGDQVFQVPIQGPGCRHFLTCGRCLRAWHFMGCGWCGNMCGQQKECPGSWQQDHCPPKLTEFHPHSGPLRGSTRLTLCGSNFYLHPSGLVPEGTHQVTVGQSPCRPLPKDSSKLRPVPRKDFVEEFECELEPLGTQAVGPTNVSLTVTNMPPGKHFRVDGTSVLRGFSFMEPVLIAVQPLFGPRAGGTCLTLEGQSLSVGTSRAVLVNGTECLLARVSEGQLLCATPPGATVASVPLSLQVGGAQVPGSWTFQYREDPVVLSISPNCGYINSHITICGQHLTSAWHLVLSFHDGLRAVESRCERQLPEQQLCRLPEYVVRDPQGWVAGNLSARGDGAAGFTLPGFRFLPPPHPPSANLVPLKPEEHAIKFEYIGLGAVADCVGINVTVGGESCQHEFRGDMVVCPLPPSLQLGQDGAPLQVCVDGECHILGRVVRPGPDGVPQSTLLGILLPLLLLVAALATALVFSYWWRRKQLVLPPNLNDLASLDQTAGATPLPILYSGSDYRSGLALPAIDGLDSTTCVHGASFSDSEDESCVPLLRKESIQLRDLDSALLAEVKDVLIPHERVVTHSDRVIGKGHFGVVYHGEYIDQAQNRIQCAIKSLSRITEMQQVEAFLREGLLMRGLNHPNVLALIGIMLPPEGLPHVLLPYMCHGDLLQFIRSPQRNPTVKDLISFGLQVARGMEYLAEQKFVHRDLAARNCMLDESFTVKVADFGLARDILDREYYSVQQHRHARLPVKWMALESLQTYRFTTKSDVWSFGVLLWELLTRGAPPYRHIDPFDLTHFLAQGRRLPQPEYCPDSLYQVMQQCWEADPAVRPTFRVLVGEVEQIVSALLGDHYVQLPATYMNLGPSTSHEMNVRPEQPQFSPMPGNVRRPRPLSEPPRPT
# Chain of Serine/threonine-protein kinase Nek2 (Homo sapiens) (P51955 whole entry): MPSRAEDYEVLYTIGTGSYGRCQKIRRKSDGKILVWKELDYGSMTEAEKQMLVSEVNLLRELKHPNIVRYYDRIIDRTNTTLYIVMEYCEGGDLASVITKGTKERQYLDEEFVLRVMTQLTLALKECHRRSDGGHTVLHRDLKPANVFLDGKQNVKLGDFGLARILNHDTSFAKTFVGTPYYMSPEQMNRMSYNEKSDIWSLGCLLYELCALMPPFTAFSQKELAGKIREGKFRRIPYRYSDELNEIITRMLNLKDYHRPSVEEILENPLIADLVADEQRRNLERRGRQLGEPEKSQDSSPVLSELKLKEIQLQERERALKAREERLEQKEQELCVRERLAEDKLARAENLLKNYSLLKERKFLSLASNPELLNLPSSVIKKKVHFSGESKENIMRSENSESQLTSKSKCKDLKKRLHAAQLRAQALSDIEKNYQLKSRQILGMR
# Chain of Tyrosine-protein kinase Lyn (Homo sapiens) (P07948 2-512 limits assumed): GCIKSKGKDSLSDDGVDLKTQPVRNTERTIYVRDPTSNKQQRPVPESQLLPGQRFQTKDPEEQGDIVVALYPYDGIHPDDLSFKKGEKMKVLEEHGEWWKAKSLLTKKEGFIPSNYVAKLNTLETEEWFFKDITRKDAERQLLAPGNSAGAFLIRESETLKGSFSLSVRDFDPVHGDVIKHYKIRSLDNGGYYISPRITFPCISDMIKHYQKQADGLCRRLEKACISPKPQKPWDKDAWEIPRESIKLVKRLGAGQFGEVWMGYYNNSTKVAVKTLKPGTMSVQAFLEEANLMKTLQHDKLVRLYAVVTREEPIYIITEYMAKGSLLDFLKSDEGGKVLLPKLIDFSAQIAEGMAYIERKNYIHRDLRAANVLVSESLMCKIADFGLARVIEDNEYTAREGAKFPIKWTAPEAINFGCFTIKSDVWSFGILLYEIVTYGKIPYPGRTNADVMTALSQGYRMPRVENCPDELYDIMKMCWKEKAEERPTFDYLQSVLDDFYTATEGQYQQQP
# Chain of Serine/threonine-protein kinase N1 (Homo sapiens) (Q16512 2-942 limits assumed): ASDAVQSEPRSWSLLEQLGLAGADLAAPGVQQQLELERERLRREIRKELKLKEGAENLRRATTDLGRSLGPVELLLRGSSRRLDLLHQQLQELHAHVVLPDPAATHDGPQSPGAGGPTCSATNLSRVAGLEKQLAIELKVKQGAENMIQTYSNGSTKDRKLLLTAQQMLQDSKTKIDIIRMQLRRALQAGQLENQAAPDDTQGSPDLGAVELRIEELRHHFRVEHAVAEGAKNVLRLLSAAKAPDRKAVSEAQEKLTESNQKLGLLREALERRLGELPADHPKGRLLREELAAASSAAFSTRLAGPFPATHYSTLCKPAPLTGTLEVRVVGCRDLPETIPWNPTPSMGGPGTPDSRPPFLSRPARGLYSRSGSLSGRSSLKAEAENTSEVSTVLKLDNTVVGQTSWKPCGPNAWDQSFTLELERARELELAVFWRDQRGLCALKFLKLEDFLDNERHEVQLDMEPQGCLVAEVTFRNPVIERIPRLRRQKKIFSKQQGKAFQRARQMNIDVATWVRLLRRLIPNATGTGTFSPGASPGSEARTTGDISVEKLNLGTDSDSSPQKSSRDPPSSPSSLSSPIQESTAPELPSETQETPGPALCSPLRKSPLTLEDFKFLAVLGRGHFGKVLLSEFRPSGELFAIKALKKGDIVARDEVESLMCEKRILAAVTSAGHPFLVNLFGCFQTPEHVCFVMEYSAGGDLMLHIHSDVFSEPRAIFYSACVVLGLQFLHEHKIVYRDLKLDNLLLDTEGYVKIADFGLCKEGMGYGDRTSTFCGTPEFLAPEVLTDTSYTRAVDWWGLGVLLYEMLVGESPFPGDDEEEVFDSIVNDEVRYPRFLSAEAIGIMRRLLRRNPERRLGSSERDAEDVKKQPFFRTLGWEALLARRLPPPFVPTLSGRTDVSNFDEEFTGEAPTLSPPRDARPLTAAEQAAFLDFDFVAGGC
compound,measurement,setting,value
CCC(=O)N[C@H]1CC[C@@H](C(=O)N(C)c2ccc(-c3nc4ccccc4o3)cc2)C1 [BI 99179],residual activity,[1],86%
same,residual activity,[2],88%
same,residual activity,[3],88%
same,residual activity,[4],95%
same,residual activity,[5],100%
same,residual activity,[6],96%
same,residual activity,[7],93%
same,residual activity,[8],97%
same,residual activity,[9],88%
same,residual activity,[10],80%
same,residual activity,[11],100%
same,residual activity,[12],58%
same,residual activity,[13],84%
same,residual activity,[14],48%
same,residual activity,[15],100%
same,residual activity,[16],100%
same,residual activity,[17],91%
same,residual activity,[18],73%
same,residual activity,[19],100%
same,residual activity,[20],100%
same,residual activity,[21],100%
same,residual activity,[22],100%
same,residual activity,[23],87%
same,residual activity,[24],100%
same,residual activity,[25],67%
same,residual activity,[26],100%
same,residual activity,[27],83%
same,residual activity,[28],93%
same,residual activity,[29],90%
same,residual activity,[30],94%
same,residual activity,[31],100%
same,residual activity,[32],83%
same,residual activity,[33],100%
same,residual activity,[34],100%
same,residual activity,[35],100%
same,residual activity,[36],99%
same,residual activity,[37],61%
same,residual activity,[38],76%
same,residual activity,[39],70%
same,residual activity,[40],100%
same,residual activity,[41],32%
same,residual activity,[42],89%
same,residual activity,[43],94%
same,residual activity,[44],82%
same,inhibition,[45],-9.45%
CCC(=O)N[C@@H]1CC[C@H](C(=O)N(C)c2ccc(-c3nc4ccccc4o3)cc2)C1 [BI 99990],residual activity,[1],76%
same,residual activity,[2],96%
same,residual activity,[3],100%
same,residual activity,[4],100%
same,residual activity,[5],100%
same,residual activity,[6],100%
same,residual activity,[7],100%
same,residual activity,[8],100%
same,residual activity,[9],100%
same,residual activity,[10],87%
same,residual activity,[11],98%
same,residual activity,[12],53%
same,residual activity,[13],93%
same,residual activity,[14],58%
same,residual activity,[15],92%
same,residual activity,[16],100%
same,residual activity,[17],100%
same,residual activity,[18],100%
same,residual activity,[19],94%
same,residual activity,[20],100%
same,residual activity,[21],100%
same,residual activity,[22],100%
same,residual activity,[23],100%
same,residual activity,[24],100%
same,residual activity,[25],73%
same,residual activity,[26],100%
same,residual activity,[27],90%
same,residual activity,[28],70%
same,residual activity,[29],77%
same,residual activity,[30],93%
same,residual activity,[31],100%
same,residual activity,[32],84%
same,residual activity,[33],92%
same,residual activity,[34],94%
same,residual activity,[35],100%
same,residual activity,[36],93%
same,residual activity,[37],100%
same,residual activity,[38],89%
same,residual activity,[39],87%
same,residual activity,[40],100%
same,residual activity,[41],100%
same,residual activity,[42],100%
same,residual activity,[43],73%
same,residual activity,[44],100%
same,inhibition,[45],4.47%
